The nature of the data set: Henry solubility constant Hcp at 298.15 K (mol/(m3 Pa)). To be noted: reference: Atlas et al. (1982).
In the case of `ClC1=C(Cl)[C@]2(Cl)[C@H]3[C@H](Cl)[C@@H](Cl)C[C@H]3[C@@]1(Cl)C2(Cl)Cl` [trans-chlordane], the “Henry solubility constant Hcp” value was 0.0074. Next, `Clc1ccccc1-c1cccc(Cl)c1Cl` [2,2',3-trichlorobiphenyl]: 0.012; `Clc1ccc(-c2ccc(Cl)c(Cl)c2Cl)cc1` [2,3,4,4'-tetrachlorobiphenyl]: 0.012. Consider `ClC(Cl)=C(c1ccc(Cl)cc1)c1ccc(Cl)cc1` [1,1-dichloro-2,2-bis-(4-chlorophenyl)-ethene], for which the “Henry solubility constant Hcp” value was 0.0081.

Turning to `Clc1cccc(-c2cccc(Cl)c2Cl)c1` [2,3,3'-trichlorobiphenyl], the “Henry solubility constant Hcp” value was found to be 0.012.

As to `ClC1C(Cl)C(Cl)C(Cl)C(Cl)C1Cl` (stereo not drawn) [α-1,2,3,4,5,6-hexachlorocyclohexane], the “Henry solubility constant Hcp” value was determined as 0.42.

On to `Clc1ccc(-c2ccc(Cl)c(Cl)c2)cc1` [3,4,4'-trichlorobiphenyl], for which the “Henry solubility constant Hcp” value amounted to 0.012. As for `Clc1ccc(-c2ccccc2Cl)cc1` [2,4'-dichlorobiphenyl], the “Henry solubility constant Hcp” value came out at 0.01. Next, `Clc1ccc(Cl)c(-c2cccc(Cl)c2Cl)c1` [2,2',3,5'-tetrachlorobiphenyl]: 0.013. Next, `ClC1=C(Cl)[C@]2(Cl)[C@@H]3[C@@H](Cl)[C@@H](Cl)C[C@@H]3[C@@]1(Cl)C2(Cl)Cl` [cis-chlordane]: 0.011.

Take `Clc1cc(Cl)c(-c2ccccc2Cl)c(Cl)c1` [2,2',4,6-tetrachlorobiphenyl]: the “Henry solubility constant Hcp” value amounted to 0.013. For the molecule `Clc1ccc(Cl)c(-c2cc(Cl)ccc2Cl)c1` [2,2',5,5'-tetrachlorobiphenyl], the “Henry solubility constant Hcp” value was determined as 0.011. The result for `Clc1ccc(Cl)c(-c2ccccc2Cl)c1` [2,2',5-trichlorobiphenyl] reads 0.0099; that for `Clc1ccc(-c2cc(Cl)ccc2Cl)cc1` [2,4',5-trichlorobiphenyl], 0.011.

(Values after Sander's compilation of Henry's law constants (doi:10.1021/es00099a010).)
